row,melting point,Compound
1,167.5 to 169 °C,"COc1ccc(NC(=O)/C=C/C=C(\Cl)c2cc3cccc(OCCCCl)c3o2)cc1OC [Example 53, (2E,4Z)-5-chloro-5-[7-(3-chloropropoxy)benzofuran-2-yl]penta-2,4-dienoic acid (3,4-dimethoxyphenyl)amide]"
2,196.3 to 196.6 °C,"C/C(O)=C(\C#N)C(=O)Nc1c(C(=O)O)oc2ccccc12 [Example 92, (Z)-3-(2-cyano-3-hydroxy-2-butenoylamino)benzofurane-2-carboxylic acid]"
3,105.8 to 106.5 °C,"COc1ccc2oc(-c3csc(C)n3)c(-c3ccc(Cl)cc3)c2c1 [Example 217, 4-[3-(4-chlorophenyl)-5-methoxybenzofuran-2-yl]-2-methylthiazole]"
4,221.9 to 222.4 °C,"CC(=O)c1oc2ccc(Br)cc2c1NC(=O)/C(C#N)=C(/C)O [Example 96, (Z)-N-(2-acetyl-5-bromobenzofuran-3-yl)-2-cyano-3-hydroxy-2-butenamide]"
5,202.9 to 205.8 °C,"COc1ccc(CCNC(=O)/C=C(\C)c2ccc(C(=O)c3oc4c(OC)cccc4c3NC(=O)/C(C#N)=C(/C)O)cc2)cc1OC [Example 106, N-[2-(4-{(E)-2-[2-(3,4-dimethoxyphenyl)ethylcarbamoyl]-1-methylvinyl}benzoyl)-7-methoxybenzofuran-3-yl]-2-cyano-3-hydroxy-(Z)-2-butenamide]"
6,194.6 to 196.5 °C,"CCOC(=O)/C=C(\C)c1ccc2oc(/C(Cl)=C/C=C/C(=O)N3CCOCC3)cc2c1 [Example 148, Ethyl 3-[2-(1-chloro-5-morpholin-4-yl-5-oxo-penta-(1Z,3E)-1,3-dienyl)benzofuran-5-yl]-(E)-2-butenoate]"
7,235.3 to 237.8 °C,"COc1ccc(Br)c2c(NC(C)=O)c(C(C)=O)oc12 [Example 211, N-(2-acetyl-4-bromo-7-methoxybenzofuran-3-yl)acetamide]"
8,227.3 to 230.4 °C,"Cc1oncc1C(=O)Nc1c(C#N)oc2ccccc12 [Example 86, N-(2-cyanobenzofuran-3-yl)-5-methylisoxazole-4-carboxamide]"
9,149 to 150 °C,"COc1ccc(CCNC(=O)/C=C/C=C(\Cl)c2cc3cccc(OCCCCl)c3o2)cc1OC [Example 60, (2E,4Z)-5-chloro-5-[7-(3-chloropropoxy)benzofuran-2-yl]penta-2,4-dienoic acid [2-(3,4-dimethoxyphenyl)ethyl]amide]"
10,121 to 122.1 °C,"CCNS(=O)(=O)c1ccc(OCCCC(=O)OCC)c2oc(C(C)NC(=O)/C(C#N)=C(\C)O)cc12 (centres unmarked) [Example 128, Ethyl (E)-4-{2-[1-(2-cyano-3-hydroxy-2-butenoylamino)ethyl]-4-ethylsulfamoylbenzofuran-7-yloxy}butyrate]"
11,111.8 to 114.6 °C,"COC(=O)COc1cccc2cc(C(C)NC(=O)c3cnoc3C)oc12 (centres unmarked) [Example 124, Methyl (2-{1-[(5-methylisoxazole-4-carbonyl)amino]ethyl}benzofuran-7-yloxy)acetate]"
12,202.6 to 205.5 °C,"CCN(CC)C(=O)/C=C(\C)c1ccc2oc(C(=O)c3ccc(C#N)cc3)c(NC(=O)c3cnoc3C)c2c1 [Example 89, (E)-N-[2-(4-cyanobenzoyl)-5-(2-diethylcarbamoyl-1-methylvinyl)benzofuran-3-yl]-5-methylisoxazole-4-carboxamide]"
13,165.5 to 166 °C,"Clc1ccc(-c2c(-c3csc(-c4ccccc4)n3)oc3c(Cl)cccc23)cc1 [Example 213, 4-[7-chloro-3-(4-chlorophenyl)benzofuran-2-yl]-2-phenylthiazole]"
14,152.5 to 154.8 °C,"O=C(O)CCCOc1cccc2cc(C(Cl)=CC=CC(=O)N3CCOCC3)oc12 (stereo in doubt) [Example 147, (2E,4Z)-4-[2-(1-chloro-5-morpholin-4-yl-5-oxo-penta-1,3-dienyl)benzofuran-7-yloxy]butyric acid]"
15,216 to 218 °C,"CC(=O)c1oc2ccc(C#N)cc2c1NC(=O)/C(C#N)=C(/C)O [Example 93, (Z)-N-(2-acetyl-5-cyanobenzofuran-3-yl)-2-cyano-3-hydroxy-2-butenamide]"
16,202.6 to 204.4 °C,"C/C(=C\C(=O)N1CCOCC1)c1ccc2oc(/C(C)=C/C(=O)O)cc2c1 [Example 136, (E,E)-3-[5-(1-methyl-3-morpholin-4-yl-3-oxopropenyl)benzofuran-2-yl]-2-butenoic acid]"
17,185.5 to 187.8 °C,"Brc1ccc2oc(-c3csc(-c4ccccc4)n3)cc2c1 [Example 212, 4-(5-bromobenzofuran-2-yl)-2-phenylthiazole]"
18,70.8 to 73.5 °C,"COc1ccc(CCNC(=O)/C=C(\C)c2cc3cccc(OC(c4ccccc4)c4ccccc4)c3o2)cc1OC [Example 47, (E)-3-(7-benzhydryloxybenzofuran-2-yl)-N-[2-(3,4-dimethoxyphenyl)ethyl]-2-butenamide]"
19,168.2 to 170.1 °C,"COc1ccc2c(NC(=O)c3cnoc3C)c(C(C)=O)oc2c1 [Example 83, N-(2-acetyl-6-methoxybenzofuran-3-yl)-5-methylisoxazole-4-carboxamide]"
20,216 to 217 °C,"C/C=C/C(=O)Nc1c(Cl)oc2c(OC)cccc12 [Example 187, (E)-2-butenoic acid (2-chloro-7-methoxybenzofuran-3-yl)amide]"
21,130.2 to 132.9 °C,"CC(=O)OC(C)c1oc2ccccc2c1NC(=O)c1cnoc1C (centres unmarked) [Example 76, 1-{3-[(5-methylisoxazole-4-carbonyl)amino]benzofuran-2-yl}ethyl acetate]"

row,melting point,Compound
1,104.7 to 107.7 °C,"C/C=C/C(=O)NC(C)c1cc2cccc(OCCCCl)c2o1 (centres unmarked) [Example 133, (E)-N-{1-[7-(3-chloropropoxy)benzofuran-2-yl]ethyl}-2-butenamide]"
2,128 to 130 °C,"CC(=O)NC(C)c1cc2ccccc2o1 (centres unmarked) [Example 190, N-(1-benzofuran-2-ylethyl)acetamide]"
3,155 to 157 °C,"CCN(CC)C(=O)/C=C(\C)c1ccc2oc(C(=O)Nc3cccc(OC)c3)c(N)c2c1 [Example 158, (E)-3-amino-5-(2-diethylcarbamoyl-1-methylvinyl)benzofurane-2-carboxylic acid (3-methoxyphenyl)amide]"
4,123.8 to 126.5 °C,"COc1ccc(/C=C/C(=O)c2oc3ccc(Br)cc3c2NC(=O)CCNCc2ccccc2)cc1 [Example 203, (E)-3-benzylamino-N-{5-bromo-2-[3-(4-methoxyphenyl)acryloyl]benzofuran-3-yl}propionamide]"
5,206.6 to 209.5 °C,"COc1cccc2c(NC(C)=O)c(C(C)=O)oc12 [Example 208, N-(2-acetyl-7-methoxybenzofuran-3-yl)acetamide]"
6,204.7 to 206.8 °C,"O=C(CCCl)Nc1c(C(=O)/C=C/c2ccccc2)oc2ccc(Br)cc12 [Example 201, (E)-N-[5-bromo-2-(3-phenylacryloyl)-benzofuran-3-yl]-3-chloropropionamide]"
7,239.2 to 241.9 °C,"Cc1oncc1C(=O)Nc1c(C#N)oc2ccc(Br)cc12 [Example 85, N-(5-bromo-2-cyanobenzofuran-3-yl)-5-methylisoxazole-4-carboxamide]"
8,240.8 to 243.2 °C,"Cc1oncc1C(=O)Nc1c(C(=O)c2ccc(Cl)cc2)oc2ccc(Br)cc12 [Example 77, N-[5-bromo-2-(4-chlorobenzoyl)benzofuran-3-yl]-5-methylisoxazole-4-carboxamide]"
9,220.4 to 223.5 °C,"CC(=O)c1cc2cc(/C(C)=C/C(=O)O)ccc2o1 [Example 134, (E)-3-(2-acetylbenzofuran-5-yl)-2-butenoic acid]"
10,131 to 135 °C,"CCc1c(/C(C)=C/C(=O)NCCc2ccc(OC)c(OC)c2)oc2ccccc12 [Example 167, 3-(3-ethylbenzofuran-2-yl)-2-butenoic acid [2-(3,4-dimethoxyphenyl)ethyl]amide]"
11,312.2 to 348.6 °C,"COc1cccc2c(NC(=O)CC#N)c(C(=O)c3ccc(Br)cc3)oc12 [Example 198, N-[2-(4-bromobenzoyl)-7-methoxybenzofuran-3-yl]-2-cyanoacetamide]"
12,207.2 to 208.9 °C,"COc1cccc2c(NC(=O)/C(C#N)=C(/C)O)c(C(C)=O)oc12 [Example 102, (Z)-N-(2-acetyl-7-methoxybenzofuran-3-yl)-2-cyano-3-hydroxy-2-butenamide]"
13,210.4 to 212.8 °C,"C/C=C/C(=O)Nc1c(C(=O)c2ccc(Cl)cc2)oc2ccc(Br)cc12 [Example 115, (E)-N-[5-bromo-2-(4-chlorobenzoyl)benzofuran-3-yl]-2-butenamide]"
14,162.6 to 165.5 °C,"COc1ccc(CCNC(=O)/C=C(\C)c2ccc3oc(C(=O)c4ccc(C#N)cc4)c(NC(=O)c4cnoc4C)c3c2)cc1OC [Example 90, (E)-N-(2-(4-cyanobenzoyl)-5-{2-[2-(3,4-dimethoxyphenyl)ethylcarbamoyl]-1-methylvinyl}benzofuran-3-yl)-5-methylisoxazole-4-carboxamide]"
15,131.7 to 133.4 °C,"COc1cccc2c(NC(=O)/C(C#N)=C(/C)O)c(C(=O)c3ccc(Br)cc3)oc12 [Example 99, (Z)-N-[2-(4-bromobenzoyl)-7-methoxybenzofuran-3-yl]-2-cyano-3-hydroxy-2-butenamide]"
16,167.4 to 167.9 °C,"Cc1nc(-c2cc3cc(Br)ccc3o2)cs1 [Example 216, 4-(5-bromobenzofuran-2-yl)-2-methylthiazole]"
17,200 to 202 °C,"C/C=C/C(=O)Nc1c(Cl)oc2ccc(Br)cc12 [Example 184, (E)-2-butenoic acid (5-bromo-2-chlorobenzofuran-3-yl)amide]"
18,121 to 123 °C,"CCN(CC)C(=O)/C=C(\C)c1cc2c(Br)cc(Br)c(OCCCC(=O)O)c2o1 [Example 31, (E)-4-[4,6-dibromo-2-(2-diethylcarbamoyl-1-methylvinyl)benzofuran-7-yloxy]butyric acid]"
19,223 to 229 °C,"COc1cccc(NC(=O)c2oc3ccc(Br)cc3c2NC(=O)c2cnoc2C)c1 [Example 183, 5-methyl-isoxazole-4-carboxylic acid [5-bromo-2-(3-methoxyphenylcarbamoyl)benzofuran-3-yl]amide]"
20,206.3 to 208.3 °C,"C/C(O)=C(\C#N)C(=O)Nc1c(C#N)oc2ccc(Br)cc12 [Example 104, (Z)-N-(5-bromo-2-cyanobenzofuran-3-yl)-2-cyano-3-hydroxy-2-butenamide]"

# Source: patent US7638540B2, “Benzofuran compound and medicinal composition containing the same” (The New Industry Research Organization, priority 2003, dated 2009)
